Measurements from patent US11499978B2, “Method for measuring quality of therapeutic cell through real-time glutathione measurement” (CELL2IN, INC., priority 2017, dated 2022).

Legend:
hUC-MSCs [1] = test: CFU-F assay of hUC-MSCs; type: cell-based, human; settings: ferrostatin-1 0.2, 1, 2 and 4 μM, liproxstatin-1 0.1, 0.5, 1 and 2 μM, 24 hours, n=3
Description: The inventors observed an effect of the material on stem cells by treating each stem cells with a material for enhancing a glutathione evaluation parameter. When hUC-MSCs were subcultured in a L-AA2G-containing medium, CFU-F, migration capacity, and an anti-inflammatory effect were observed. A CFU-F assay (n=3) was performed by treating hUC-MSCs with 125 or 250 μg/mL of AA2G for three days. As shown in FIGS. 16A and 16B, it was confirmed that, when AA2G was treated, CFU-F increased. In addition, as hUC-MSCs were treated with 125 or 250 μg/mL of AA2G for three days, PDGF-AA-induced migration capacity (n=3) was analyzed. As shown in FIGS. 17A and 17B, it was confirmed that the migration capacity was increased by AA2G treatment. In addition, the reduction in T cell proliferation, the reduction in T cell differentiation, and the promotion of Treg cell differentiation were observed by treating hUC-MSCs with 125 or 250 μg/mL of AA2G for three days. […] Meanwhile, hUC-MSCs were cultured with a glutathione precursor such as γ-glutamyl cysteine (GGC, 0.1, 0.25, and 0.5 mM). A CFU-F assay (n=3) was performed by treating hUC-MSCs with each concentration of GGC for 2 hours. […] In addition, SDF1α and PDGF-AA-induced migration capacities (n=3) were analyzed for hUC-MSCs without treatment with GGC, and SDF1α and PDGF-AA-induced migration abilities (n=3) were analyzed by treating hUC-MSCs with the increasing concentrations of GGC. STI571 was used as a PDGFR kinase inhibitor. As shown in FIGS. 20A to 20C, it was confirmed that, according to an increase in GGC treatment concentration, SDF1α- and PDGF-AA-induced migration capacities were enhanced. A CFU-F assay (n=3) was performed by treating hUC-MSCs with 0.2, 1, 2, and 4 μM ferrostatin-1 and 0.1, 0.5, 1, and 2 μM liproxstatin-1 for 24 hours.

hUC-MSCs [2] = test: mGSH distribution in hUC-MSCs after RSL3 (MitoFreSH, flow cytometry and confocal imaging); type: cell-based, human
Description: After the cultured human umbilical cord-derived mesenchymal stem cells (hUC-MSCs) at passage 4, 7 or 15 were treated with various concentrations of RSL3 and stained with MitoFreSH, the distribution pattern of mitochondrial GSH (mGSH) in the cells was confirmed by histograms using flow cytometry and confocal imaging.
hUC-MSCs at passage 4, 7 or 15 were prepared, seeded at 70000 cells/well in a 6-well cell culture plate, and cultured at 37° C. for 24 hours. The medium used in the culture was prepared by adding 10% fetal bovine serum and 1× penicillin-streptomycin to α-MEM. […] The cells detached from the plate were transferred to an FACS tube and stored on ice, and a fluorescence level was measured using a flow cytometer.
hUC-MSCs at passage 4, 7 or 15 were prepared, seeded at 7000 cells/100 μl per well in a 96-well cell culture plate, and cultured at 37° C. for 24 hours. […] To remove MitoFreSH-Tracer from the medium before measurement, the medium was exchanged with fresh 10 mM HEPES-containing HBSS, and fluorescence images were measured using a confocal imaging system, Operetta.
A F510/F580 ratio referring to a GSH mean value in cells was calculated by measuring fluorescence values of F510 (fluorescence value when MitoFreSH-Tracer was bound with SH) and F580 (fluorescence value of MitoFreSH-Tracer, which was not bound with SH) in cells and dividing the F510 value by the F580 value. […]

T cells = test: Anti-inflammatory effect of treated hUC-MSCs on T cells; type: cell-based
Description: The inventors observed an effect of the material on stem cells by treating each stem cells with a material for enhancing a glutathione evaluation parameter. When hUC-MSCs were subcultured in a L-AA2G-containing medium, CFU-F, migration capacity, and an anti-inflammatory effect were observed. A CFU-F assay (n=3) was performed by treating hUC-MSCs with 125 or 250 μg/mL of AA2G for three days. As shown in FIGS. 16A and 16B, it was confirmed that, when AA2G was treated, CFU-F increased. In addition, as hUC-MSCs were treated with 125 or 250 μg/mL of AA2G for three days, PDGF-AA-induced migration capacity (n=3) was analyzed. As shown in FIGS. 17A and 17B, it was confirmed that the migration capacity was increased by AA2G treatment. In addition, the reduction in T cell proliferation, the reduction in T cell differentiation, and the promotion of Treg cell differentiation were observed by treating hUC-MSCs with 125 or 250 μg/mL of AA2G for three days.
In addition, hUC-MSCs were cultured with ferrostatin-1 (0.2, 1, 2 and 4 μM) and liproxstatin-1 (0.1, 0.5, 1 and 2 μM), which control a glutathione level in cells by inhibiting lipid oxidation. […] Meanwhile, the hUC-MSCs were treated with 1 μM ferrostatin-1 for 24 hours, 0.2 mM GGC for 2 hours, and 2 mM GSH-EE for 2 hours. As a result, the reduction in T cell proliferation ability and the reduction in T cell differentiation capacity were observed, and promotion of Treg cell differentiation was observed.

hUC-MSCs [3] = test: CD146 surface expression in mGSH High and mGSH Low hUC-MSCs after RSL3; type: cell-based, human; settings: P4 hUC-MSC group in which mGSH level is lowered by RSL3, compared with mGSH level-maintaining group
Source text: To confirm whether the stem cell function of cells in which an mGSH level decreased is deteriorated under lipid oxidative stress caused by RSL3 treatment, an expression level of CD146, which is a cell surface protein known to be highly expressed in stem cells of high quality according to conventional literature, was confirmed through flow cytometry.
The cells were stained by the same method as a method of measuring a mitochondria GSH level through the flow cytometry described above, and detached from the plate using trypsin. The detached cells were treated with an antibody for flow cytometry with respect to CD146 to which a fluorescent material BUV395 was bound at 4° C. for 30 minutes, and washed with PBS. Using a flow cytometer, F510 and F580 fluorescence values for measuring a GSH level and a BUV395 fluorescence value for measuring CD146 expression were measured. Afterward, based on the point at which the histogram showing the F510/F580 distribution was divided into two peaks, the cells were divided into GSH^High cells (right peak) and GSH^Low cells (left peak) using FlowJo software, and a CD146-positive ratio of the corresponding cells is represented as a percentage (%).

human dermal fibroblasts = test: mGSH level in human dermal fibroblasts after RSL3; type: cell-based; settings: as the subculture continued; confocal imaging
Description: As described in the experiment for MSCs, human dermal fibroblasts subcultured several times were treated with RSL3 and the cells were stained with MitoFreSH-Tracer, and a ratio between cells maintaining mGSH and cells not maintaining mGSH was represented as a percentage through confocal imaging.

[4] = hUC-MSCs treated with 1 μM ferrostatin-1 24 h, 0.2 mM GGC 2 h, 2 mM GSH-EE 2 h

SMILES | CFU-F (hUC-MSCs [1]) | effect of RSL3 on mGSH upon Ferrostatin-1 treatment (hUC-MSCs [2]; hUC-MSCs treated with RSL3) | anti-inflammatory effect of the hUC-MSCs (T cells; ferrostatin-1 1 μM 24 h, GGC 0.2 mM 2 h, FIGS. 27, 28A to 28C) | T cell differentiation capacity (T cells; [4]) | T cell proliferation ability (T cells; [4]) | Treg cell differentiation (T cells; [4]) | lowering of CD146-positive ratio (hUC-MSCs [3]) | proportion of cells in which mGSH decreases by treatment with RSL3 (human dermal fibroblasts) | mGSH levels (hUC-MSCs [2]; hUC-MSCs at passage 4, 7 or 15, RSL3 0.1/0.5/1 μM, depending on RSL3 concentration and passage number)
CCOC(=O)c1ccc(NC2CCCCC2)c(N)c1 [ferrostatin-1] | improved | disappeared | did not alter | reduction | reduction | promotion | – | – | –
COC(=O)c1ccc([C@@H]2c3[nH]c4ccccc4c3C[C@@H](C(=O)OC)N2C(=O)CCl)cc1 [RSL3, 1S,3R-RAS-selective lethal 3] | – | – | – | – | – | – | approximately 25% | increased | reduced
